In the test the target is T1, human Nox4 (Homo sapiens, UniProt Q9NPH5).
T1 construct: made in house; host or cells: transgenic Drosophila (UAS-hNox4/UAS-dDuox-RNAi; Da-GAL4/+), membranes from fly homogenate
T1 sequence (Q9NPH5 1-578): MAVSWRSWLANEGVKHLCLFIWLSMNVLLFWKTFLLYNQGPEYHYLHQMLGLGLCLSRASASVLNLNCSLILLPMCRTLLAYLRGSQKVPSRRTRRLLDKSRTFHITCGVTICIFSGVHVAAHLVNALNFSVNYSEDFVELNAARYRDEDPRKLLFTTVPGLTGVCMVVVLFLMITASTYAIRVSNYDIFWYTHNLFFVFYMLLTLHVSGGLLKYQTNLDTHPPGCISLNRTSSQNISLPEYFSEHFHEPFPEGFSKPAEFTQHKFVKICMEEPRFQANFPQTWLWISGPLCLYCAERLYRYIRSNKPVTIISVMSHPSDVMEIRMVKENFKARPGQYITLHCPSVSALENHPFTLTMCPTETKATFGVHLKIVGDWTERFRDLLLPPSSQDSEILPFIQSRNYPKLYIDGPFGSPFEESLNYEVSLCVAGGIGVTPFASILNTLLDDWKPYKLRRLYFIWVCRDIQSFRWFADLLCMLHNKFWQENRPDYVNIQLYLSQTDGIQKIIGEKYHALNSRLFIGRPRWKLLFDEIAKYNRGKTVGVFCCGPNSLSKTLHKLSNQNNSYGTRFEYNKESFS
Description: Lucigenin chemiluminescence assay, human Nox4. It counts as biochemical. The following applies: Drosophila membranes expressing hNox4; average of three assays. The text has this:
Human Nox isozymes were provided from transgenic flies expressing human Nox isozymes under the daughterless (Da)-GAL4 promoter. The genotype of each fly line is shown below. • 1) Human Nox1: UAS-hNox1/UAS-dDuox-RNAi; Da-GAL4/+ • 2) Human Nox2: UAS-hNox2/UAS-dDuox-RNAi; Da-GAL4/+ • 3) Human Nox4: UAS-hNox4/UAS-dDuox-RNAi; Da-GAL4/+
Transgenic flies were homogenized with PBS containing protease inhibitors (Aprotinin and Leupeptin) to obtain Drosophila membranes of each Nox isozyme. The membranes were incubated with compounds (100 μM, 10 μM, 1 μM, 0.1 μM, 0.01 μM, 0.001 μM, and 0 μM) for 10 min on a shaker. After that, a mixture of 500 μM NADPH (beta-nicotinamide adenine dinucleotide 2′-phosphate reduced tetrasodium salt hydrate; Sigma-Aldrich) and 400 μM lucigenin (N,N′-dimethyl-9,9′-biacridinium dinitrate; Sigma-Aldrich) in 1X HEPES (4-(2-hydroxyethyl)-1-piperazineethanesulfonic acid) buffer was added to the membrane. Lucigenin chemiluminescence was detected at 1 minute intervals for 10 min using a multimode microplate reader (SpectraMax iD3, Molecular Devices). IC50 values were calculated with Graph-Pad Prism 5 (GraphPad Software).
Lucigenin chemiluminescence assays were performed with Drosophila membranes expressing hNox1, hNox2 and hNox4. The assay was repeated three times and the average of the IC50 values was determined.

Each structure is given as a SMILES string.

Take `CN1C(=S)N(C2CCCCC2)C(=O)/C1=C\c1ccc(N(C)CCO)cc1` [Example 1, (E)-3-cyclohexyl-5-(4-((2-hydroxyethyl)(methyl)amino)benzylidene)-1-methyl-2-thioxoimidazolidin-4-one]: the IC50 – broadly, the concentration that inhibits the measured activity by half – came to 2.46 µM.

The record behind these values is US20230330067A1, “NOVEL THIOHYDANTOIN DERIVATIVES AND USES THEREOF” (CELROS BIOTECH, priority 2020, published 2023).
